For test [1], the target named is Aurora kinase B (Homo sapiens) (UniProt Q96GD4). The test can be described thus: Disruption of mitotic localization of AURKB in human RPE-MYC H2B-GFP cells assessed as induction of mitotic arrest measured after 24 hrs by fluorescence high content cell imaging analysis. The test is classed as cell-based.
For test [2] the target is unchanged. In words: Disruption of mitotic localization of AURKB in human RPE-MYC H2B-GFP cells assessed as induction of polyploidy by fluorescence high content cell imaging analysis. The test is classed as cell-based.
Test [3] has as its target T1, Aurora kinase A (Homo sapiens) (UniProt O14965).
T1 sequence (whole entry): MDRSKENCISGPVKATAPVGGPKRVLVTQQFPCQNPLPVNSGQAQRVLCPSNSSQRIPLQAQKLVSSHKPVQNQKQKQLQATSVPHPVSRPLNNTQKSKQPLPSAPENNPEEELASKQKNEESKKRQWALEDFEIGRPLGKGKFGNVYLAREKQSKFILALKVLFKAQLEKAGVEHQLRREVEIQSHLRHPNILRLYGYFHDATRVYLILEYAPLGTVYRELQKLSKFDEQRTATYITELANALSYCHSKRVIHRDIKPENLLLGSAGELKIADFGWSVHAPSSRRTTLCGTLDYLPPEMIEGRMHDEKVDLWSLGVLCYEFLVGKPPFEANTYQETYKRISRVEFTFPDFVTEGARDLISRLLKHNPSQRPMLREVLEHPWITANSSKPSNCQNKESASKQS
The test can be described thus: Inhibition of AURKA in human RPE-MYC H2B-GFP cells assessed as inhibition of autophosphorylation of AURKA at Thr288 residue at 8XMEC measured after 6 hrs by immunofluorescence staining analysis. The class given is cell-based.

Test [4] deals with Aurora kinase B (Homo sapiens) (UniProt Q96GD4). The test can be described thus: Disruption of mitotic localization of AURKB at the spindle mid-zone and equatorial cortex in human RPE-MYC cells expressing BCL2 at 40 nM measured after 6 hrs by immunofluorescence staining analysis. The test is classed as cell-based.
A further test deals with HCT-116. In words: Cytotoxicity against human HCT-116 cells assessed as cell growth inhibition incubated for 3 days by MTT assay. The test is classed as functional, cell-based. The conditions noted are these: time 3.0 day. Background: Tetrazolium assays rely on reduction of a dye to a coloured formazan, in cell work by metabolically active cells.
The target in test [5] is Aurora kinase B (Homo sapiens) (UniProt Q96GD4). In words: Disruption of mitotic localization of AURKB in human RPE-MYC cells expressing BCL2 assessed as disruption of PLK1 localization at spindle mid-zone at 40 nM measured after 6 hrs by immunofluorescence staining analysis. The test is classed as cell-based.
The next test relates to HeLa. The test can be described thus: Cytotoxicity against human HeLa cells assessed as cell growth inhibition incubated for 3 days by MTT assay. The class given is functional, cell-based. The conditions noted are these: time 3.0 day.
Another test has as its system MDA-MB-231. The test can be described thus: Cytotoxicity against human MDA-MB-231 cells assessed as cell growth inhibition incubated for 3 days by MTT assay. The test is classed as functional, cell-based. The conditions noted are these: time 3.0 day.
Another test relates to NCI-H23. The test can be described thus: Cytotoxicity against human NCI-H23 cells assessed as cell growth inhibition incubated for 3 days by MTT assay. The class given is functional, cell-based. Particulars: time 3.0 day.
For test [6], the target named is Aurora kinase B (Homo sapiens) (UniProt Q96GD4). In words: Inhibition of AURKB in human RPE-MYC H2B-GFP cells assessed as inhibition of histone H3 phosphorylation at Ser10 residue at 8XMEC measured after 6 hrs by immunofluorescence staining analysis. The class given is cell-based.
In another test the test system is NCI-N87. In words: Cytotoxicity against human NCI-N87 cells assessed as cell growth inhibition incubated for 3 days by MTT assay. The class given is functional, cell-based. Particulars: time 3.0 day.
The target of test [7] is Aurora kinase B (Homo sapiens) (UniProt Q96GD4). The test can be described thus: Disruption of mitotic localization of AURKB in human RPE-MYC H2B-GFP cells assessed as induction of polyploidy by fluorescence high content cell imaging analysis relative to control. The test is classed as cell-based.
The target is the same in test [8]. The test can be described thus: Disruption of mitotic localization of AURKB in human RPE-MYC H2B-GFP cells assessed as induction of mitotic arrest by fluorescence high content cell imaging analysis. The test is classed as cell-based.
For a further test, the system named is A549. The test can be described thus: Cytotoxicity against human A549 cells assessed as cell growth inhibition incubated for 3 days by MTT assay. The test is classed as functional, cell-based. The conditions noted are these: time 3.0 day.
Test [9] has as its target Aurora kinase B (Homo sapiens) (UniProt Q96GD4). The test can be described thus: Disruption of mitotic localization of AURKB in human RPE-MYC cells expressing BCL2 assessed as disruption of MKLP1 localization at spindle mid-zone at 40 nM measured after 6 hrs by immunofluorescence staining analysis. The test is classed as cell-based.
The subject of a further test is SW480. The test can be described thus: Cytotoxicity against human SW480 cells assessed as cell growth inhibition incubated for 3 days by MTT assay. The class given is functional, cell-based. The conditions noted are these: time 3.0 day.

The source made the active and inactive calls. The rule behind the calls is not given here.

A word on the inhibition: it is the share of the control response that was lost under treatment.

Chain of Aurora kinase B (Homo sapiens) (Q96GD4 whole entry): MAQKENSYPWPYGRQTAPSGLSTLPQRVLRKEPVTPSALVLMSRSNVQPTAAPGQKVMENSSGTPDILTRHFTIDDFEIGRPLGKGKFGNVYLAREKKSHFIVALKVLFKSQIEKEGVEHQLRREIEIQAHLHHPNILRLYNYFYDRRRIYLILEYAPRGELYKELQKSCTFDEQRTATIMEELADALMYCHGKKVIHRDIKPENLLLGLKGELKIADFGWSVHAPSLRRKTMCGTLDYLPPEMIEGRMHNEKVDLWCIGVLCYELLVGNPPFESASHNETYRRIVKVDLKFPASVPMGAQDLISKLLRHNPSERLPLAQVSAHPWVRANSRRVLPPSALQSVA

With `COc1cc(Oc2ccnc3ccccc23)cc(C(F)(F)F)c1`, the MEC in [1] and in test [2] was 1.25 µM throughout.

For the compound `COc1cc(Oc2ccnc3ccccc23)cc(C(=O)O)c1`, the MEC in [1] and in test [2] was > 40 µM throughout.

For the compound `COC(=O)c1ccc(OC)c(Oc2ccnc3ccccc23)c1`, the MEC in test [1] and in [2] was 0.625 µM each time.

For `COC(=O)c1ccc(Oc2ccnc3ccccc23)cc1`, the MEC in test [1] and in [2] was 40 µM in each case.

With `c1ccc(Oc2ccnc3ccccc23)cc1`, the MEC in [1] and in test [2] was > 40 µM in each case.

For the compound `COc1cc(Oc2ccnc3cc(OC)ccc23)cc(-n2cccn2)c1`, the MEC in test [1] and in test [2] was 5 µM in each case.

Turning to `Nc1cccc(Oc2ccnc3ccccc23)c1`, the MEC in [1] and in test [2] was 40 µM in each case.

On to `COc1cc(NC(C)=O)cc(Oc2ccnc3ccc(F)cc23)c1`, for which the inhibition in test [3] and in test [6] was < 40% each time. For the same compound, the outcome (in [4]; with HCT-116; in test [5]; in the test with HeLa; in the test with MDA-MB-231; in the test with NCI-H23) was Active. Also, the result (in the test with NCI-N87; with A549; in test [9]; with SW480) was Active. Besides, the MEC in test [1] and in test [2] was 0.01 µM in each case. Further, the Activity in test [7] amounted to 100%. Also, in test [8], the result was inactive.

In the case of `CC(=O)c1cccc(Oc2ccnc3ccccc23)c1`, the MEC in test [1] and in test [2] was 10 µM in each case.

`COc1cc(OC)cc(Oc2ccnc3ccccc23)c1`: the MEC in test [1] and in test [2] was 0.078 µM throughout.

Consider `O=Cc1cccc(Oc2ccnc3ccccc23)c1`, for which the MEC in test [1] and in test [2] was > 40 µM each time.

Take `COc1cc(NC(C)=O)cc(Oc2ccnc3ccccc23)c1`: the MEC in test [1] and in [2] was 0.078 µM throughout.

As for `COC(=O)c1cccc(Oc2ccnc3ccccc23)c1`, the MEC in test [1] and in [2] was 10 µM in each case.

With `COc1cc(NC(C)=O)cc(Oc2ccnc3cc(OC)c(C(N)=O)cc23)c1`, the MEC in test [1] and in test [2] was 0.625 µM in each case.

Turning to `COc1cc(Oc2ccnc3ccc(F)cc23)cc(-n2cccn2)c1`, the MEC in test [1] and in test [2] was 0.052 µM in each case.

As to `O=C(NC1CCCC1)c1cccc(Oc2ccnc3ccccc23)c1`, the MEC in [1] and in test [2] was > 40 µM each time.

With `COc1cc(Oc2ccnc3ccccc23)cc(-n2cccn2)c1`, the MEC in test [1] and in [2] was 0.078 µM throughout.

For the compound `COc1cccc(Oc2ccnc3ccccc23)c1`, the MEC in [1] and in [2] was 5 µM each time.

As to `COC(=O)c1cc(OC)cc(Oc2ccnc3ccccc23)c1`, the MEC in test [1] and in [2] was 0.02 µM each time.

Regarding `COc1cc(Oc2ccnc3ccccc23)cc(-c2nc(C)no2)c1`, the MEC in test [1] and in test [2] was 0.625 µM each time.

Turning to `COC(=O)c1cc2c(Oc3cc(OC)cc(-n4cccn4)c3)ccnc2cc1OC`, the MEC amounted to 0.039 µM in test [1] and 0.078 µM in test [2].

In the case of `CNC(=O)c1cc(OC)cc(Oc2ccnc3ccccc23)c1`, the results for the MEC in test [1] and in [2] were 0.625 µM and 1.25 µM, respectively.

For `COC(=O)c1cc2c(Oc3cc(NC(C)=O)cc(OC)c3)ccnc2cc1OC`, the MEC in test [1] and in [2] was 1.25 µM in each case.

Regarding `COc1cc(Oc2ccnc3cc(C(F)(F)F)ccc23)cc(-n2cccn2)c1`, the MEC in test [1] and in test [2] was > 40 µM throughout.

For the compound `COc1ccc(Oc2ccnc3ccccc23)cc1`, the MEC in [1] and in [2] was > 40 µM in each case.

On to `COc1cc(Oc2ccnc3cc(OC)c(OC)cc23)cc(-n2cccn2)c1`, for which the inhibition in test [3] and in [6] was < 40% throughout. The outcome (in [4]; with HCT-116; in test [5]; with HeLa; with MDA-MB-231; in the test with NCI-H23) was Active. Further, the outcome (in the test with NCI-N87; with A549; in test [9]; in the test on SW480) was Active. Moreover, the MEC in test [1] and in test [2] was 0.012 µM each time. The Activity in test [7] was 100%. Further, the result in test [8] was inactive.

For `CCOC(=O)c1cccc(Oc2ccnc3ccccc23)c1`, the MEC in [1] and in test [2] was 10 µM throughout.

For the compound `COc1cc(Oc2ccnc3cc(Cl)ccc23)cc(-n2cccn2)c1`, the MEC in test [1] and in test [2] was 20 µM throughout.

As for `COc1cc(NC(C)=O)cc(Oc2ccnc3cc(OC)c(OC)cc23)c1`, the MEC in test [1] is 0.039 µM; in test [2] it was 0.078 µM.

Regarding `COc1cc(Oc2ccnc3ccc(OC)cc23)cc(-n2cccn2)c1`, the inhibition in test [3] and in [6] was < 40% in each case. Also, the result (in test [4]; in the test on HCT-116; in [5]; in the test with HeLa; in the test on MDA-MB-231; with NCI-H23) was Active. The result (in the test on NCI-N87; with A549; in test [9]; in the test on SW480) was Active. Moreover, the MEC in test [1] and in test [2] was 0.012 µM throughout. Further, the Activity in [7] came out at 100%. The result in test [8] was inactive.

Source of the values: ChEMBL document CHEMBL5241130, “Integrating a phenotypic screening with a structural simplification strategy to identify 4-phenoxy-quinoline derivatives to potently disrupt the mitotic localization of Aurora kinase B” (Bioorg Med Chem, 2023).
